Reference: patent publication US6440978B2, “Therapeutic agent for dermatitis” (Nippon Zoki Pharmaceutical Co., Ltd., priority 2000, dated 2002)

Key:
[1] = system: antigen-induced flare-up reaction in a mouse; assay: Suppressive action against antigen-induced flare-up reaction in a mouse; type: in vivo, BALB/c female mice; conditions: 3% ointment
Experimental: (§1) Seven week old BALB/c female (SPF) mice of were selected as subjects. According to a method of Tanaka, et al. (Allergy, 46, pages 42-48(1997)), egg white albumin (final concentration: 2 μg/mL) and aluminum hydroxide gel (final concentration: 10 mg/mL) were suspended in physiological saline and 0.5 mL of the suspension was administered to effect intraperitoneal sensitization on the first day of the test. On the 14th day of the test, an additional sensitization was carried out under the same conditions. Further, on the 28th day of the test, 25 μL of egg albumin (a 20 μg/mL solution in physiological saline) was intradermally administered to the right ear of a mouse to induce a swelling reaction.
This swelling reaction reached its peak at 4 hours after the challenge by the antigen. Even after 24 to 48 hours, a significant swelling reaction was noted as compared with the control in which antigen was merely challenged (not sensitized). […] On the contrary, the swelling from 24 to 48 hours after the challenge is thought to be the so-called delayed-type swelling reaction accompanied by infiltration of eosinophils, neutrophils and lymphocytes. In addition, a flare-up reaction having a peak at 24 hours after the challenge appeared on the ear of the antigen-induced site. Like swelling, flare-up is an important symptom of inflammation. Although the mechanism of the flare-up reaction is ambiguous, it may be a flare-up reaction of a delayed type in view of the time course of its expression. As such, this model animal in which the inflammation of both immediate and delayed types are induced is appropriate as a model animal for atopic dermatitis. In the following experiment, the effectiveness of the therapeutic agent for dermatitis according to the present invention was tested using the said model animal.
Each of a vehicle (control) and an agent for the test (the therapeutic agent for dermatitis according to the present invention or a positive control) was applied to the antigen-induced site (right auricle) of a mouse to induce a swelling reaction in accordance with Example 2 at 2 hours before and 4 hours after the challenge. The right ear was observed by naked eye and the degree of flare-up was scored according to the following standard:
1: in such a degree that a flare-up was confirmed, the color is clear red or pale red and the size was small
2: between score 3 and score 1
3: color of the flare-up was clearly red and the size of the flare-up was big

[2] = system: eosinophil infiltration into the antigen-induced ear of a mouse; assay: Suppressive action against eosinophil infiltration into the antigen-induced ear of a mouse (eosinophil peroxidase activity); type: in vivo, BALB/c female mice; conditions: 3% ointment; ear tissue 24 hours after challenge; compared with positive control
Experimental: as §1
The degree of eosinophil infiltration into the ear of a mouse was determined by measuring eosinophil peroxidase activity in a skin tissue homogenate and using the measurement as an index. […] This homogenate was centrifuged at 20,000 rpm for 20 minutes (using KR-20000T, Kubota) and the peroxidase activity in the supernatant fluid was measured using o-phenylenediamine dihydrochloride (Sigma) as a substrate. By measuring the absorbance of radiation having a wavelength of 492 nm, the resulting reaction curve was substantially linear relative to the dosage of the test drug and the degree of eosinophil infiltration was compared by defining the eosinophil infiltration of the control as 100%.

[3] = biological target: T1, phosphodiesterase type V (PDE V) (Homo sapiens, UniProt O76074); assay: Inhibitory action against phosphodiesterase type V; type: biochemical; conditions: 100 μM; PDE V from human platelets
T1 construct: phosphodiesterase type V (PDE V) partially purified from human platelets; from tissue; host or cells: human platelets
Source text: The inhibitory action of the compounds of the present invention against activities of various phosphodiesterase (PDE) isozymes were investigated using the conventional method. Each of the inhibitory action of the compounds of the present invention on the activities of phosphodiesterase type II (PDE II) partially purified from human platelets, phosphodiesterase type III […] partially purified from human platelets, phosphodiesterase type IV (PDE IV) partially purified from human U937 promonocytic leukemia cells and phosphodiesterase type V (PDE V) partially purified from human platelets were measured.

Nc1ccc2c(=O)n(Cc3ccccc3)c(=O)n(-c3ccccc3)c2n1 [Compound 1, 7-amino-3-benzyl-1,2,3,4-tetrahydro-1-phenylpyrido[2,3-d]pyrimidin-2,4-dione]
Suppression Rate of flare-up score at 4 hr after Challenge ([1]; 4 hr after challenge): (0.0%) | Flare-up Score at 4 hr after Challenge ([1]; 4 hr after challenge, score 0-3): 0.8 ± 0 | Suppression Rate of flare-up score at 24 hr after Challenge ([1]; 24 hr after challenge): (32.0%) | Flare-up Score at 24 hr after Challenge ([1]; 24 hr after challenge, score 0-3): 1.7 ± 0.2 | eosinophil infiltration suppressing action [2]: same degree as that of the steroid preparation of the positive control | suppression activity against PDE V [3]: 15%
